According to article PMC4929166, “Pharmacological evaluation of synthetic cannabinoids identified as constituents of spice” (Forensic Toxicology, 2016):

Columns and labels:
CB2 receptor [1] = target: T1, CB2 receptor (Homo sapiens, UniProt P34972); assay: cAMP accumulation assay in CHO cells expressing CB2; format: cell-based; set-up: expressed in transfected cells; host or cells: CHO cells; settings: cAMP accumulation, forskolin 10 µM, normalized to CP55,940
human GPR55 = target: T2, human GPR55 (Homo sapiens, UniProt Q9Y2T6); assay: β-Arrestin recruitment assay (PathHunter) at GPR55; format: cell-based; settings: for IC50: Human GPR55 IC50, β-arrestin assay, antagonist mode; for Human GPR55 % activation / Human GPR55 % inhibition: β-arrestin assay; for Human GPR55 % activation: percent in brackets beside EC50 >10 µM; for Human GPR55 % inhibition: percent in brackets beside IC50
T2 construct: β-galactosidase enzyme fragment (PathHunter complementation tag)
T2 sequence (Q9Y2T6 whole entry, the tested form may be a part): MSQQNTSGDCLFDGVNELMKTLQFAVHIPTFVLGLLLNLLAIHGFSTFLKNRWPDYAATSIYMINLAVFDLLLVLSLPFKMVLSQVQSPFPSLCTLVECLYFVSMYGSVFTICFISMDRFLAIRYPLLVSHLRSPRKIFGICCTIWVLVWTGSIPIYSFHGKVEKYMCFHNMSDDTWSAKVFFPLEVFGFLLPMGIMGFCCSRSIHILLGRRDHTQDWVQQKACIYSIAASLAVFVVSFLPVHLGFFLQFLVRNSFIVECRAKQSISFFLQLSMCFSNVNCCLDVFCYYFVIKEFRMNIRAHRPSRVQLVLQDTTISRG
Method: (§1) Recruitment of β-arrestin to the respective receptor was detected by using β-galactosidase enzyme fragment complementation technology (β-arrestin PathHunter™ assay, DiscoverX, Fremont, CA, USA) as previously described. Data were obtained from three independent experiments, performed in duplicates. Data were analyzed using Graph Pad Prism Version 4.02 (San Diego, CA, USA).

human GPR18 = target: T3, human GPR18 (Homo sapiens, UniProt Q14330); assay: β-Arrestin recruitment assay (PathHunter) at GPR18; format: cell-based; settings: for Human GPR18 % activation / Human GPR18 % inhibition: β-arrestin assay; for Human GPR18 % activation: percent in brackets beside EC50 >10 µM; for Human GPR18 % inhibition: percent in brackets beside IC50
T3 construct: β-galactosidase enzyme fragment (PathHunter complementation tag)
T3 sequence (Q14330 1-331): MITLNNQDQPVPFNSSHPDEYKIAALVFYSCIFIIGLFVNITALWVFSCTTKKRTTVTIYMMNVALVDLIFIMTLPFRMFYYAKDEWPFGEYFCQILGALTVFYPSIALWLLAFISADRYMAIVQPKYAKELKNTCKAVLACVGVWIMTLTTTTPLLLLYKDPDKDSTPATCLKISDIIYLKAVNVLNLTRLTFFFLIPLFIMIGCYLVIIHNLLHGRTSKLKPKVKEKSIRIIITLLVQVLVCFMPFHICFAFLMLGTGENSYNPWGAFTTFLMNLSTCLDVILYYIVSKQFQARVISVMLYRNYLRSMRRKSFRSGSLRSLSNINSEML
Method: as §1

CB1 receptor [2] = target: T4, CB1 receptor (Homo sapiens, UniProt P21554); assay: cell-based; format: cell-based; set-up: expressed in transfected cells; host or cells: CHO cells; settings: cAMP accumulation, forskolin 10 µM; test concentration 1 µM or 10 µM; normalized to CP55,940
T4 sequence (P21554 whole entry): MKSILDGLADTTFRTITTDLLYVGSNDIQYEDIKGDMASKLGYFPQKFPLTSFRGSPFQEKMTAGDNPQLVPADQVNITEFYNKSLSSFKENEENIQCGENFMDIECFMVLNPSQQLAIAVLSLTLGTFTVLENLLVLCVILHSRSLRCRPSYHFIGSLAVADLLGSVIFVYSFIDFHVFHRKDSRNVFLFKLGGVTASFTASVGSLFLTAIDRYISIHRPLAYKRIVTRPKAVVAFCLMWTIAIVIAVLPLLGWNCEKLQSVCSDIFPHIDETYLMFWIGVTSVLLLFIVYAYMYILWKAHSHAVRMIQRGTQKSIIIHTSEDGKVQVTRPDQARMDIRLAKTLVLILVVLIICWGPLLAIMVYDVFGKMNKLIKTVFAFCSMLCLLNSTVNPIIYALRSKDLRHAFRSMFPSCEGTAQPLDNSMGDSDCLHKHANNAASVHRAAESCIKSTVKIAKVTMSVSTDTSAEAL

CB1 receptor [3] = target: T4, CB1 receptor; assay: biochemical; format: binding; set-up: expressed in transfected cells; host or cells: CHO cells (membrane preparation); settings: for CB1 selectivity Ki CB2/KiCB1: Table S1, selectivity index from Ki values; for Ki: versus 0.1 nM [3H]CP55,940, CHO cell membranes, mean ± SEM of three to five experiments, read-out: Ki ± SEM Human CB1
CB2 receptor [4] = target: T1, CB2 receptor; assay: biochemical; format: binding; set-up: expressed in transfected cells; host or cells: CHO cells (membrane preparation); settings: for CB2 selectivity Ki CB1/KiCB2: Table S1, selectivity index from Ki values; for Ki: versus 0.1 nM [3H]CP55,940, CHO cell membranes, mean ± SEM of three to five experiments, read-out: Ki ± SEM Human CB2

T1 sequence (P34972 whole entry): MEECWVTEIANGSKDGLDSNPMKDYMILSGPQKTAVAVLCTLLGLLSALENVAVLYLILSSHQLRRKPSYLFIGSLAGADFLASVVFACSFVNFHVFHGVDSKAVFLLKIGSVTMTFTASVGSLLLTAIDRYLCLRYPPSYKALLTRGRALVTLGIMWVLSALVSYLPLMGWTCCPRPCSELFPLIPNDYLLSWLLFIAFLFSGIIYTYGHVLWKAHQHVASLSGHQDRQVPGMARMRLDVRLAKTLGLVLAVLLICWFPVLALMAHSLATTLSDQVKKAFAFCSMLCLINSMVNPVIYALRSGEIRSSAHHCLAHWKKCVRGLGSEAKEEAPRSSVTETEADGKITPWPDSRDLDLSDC

SMILES | activation of CB2 receptor compared to full agonist CP55,940 (CB2 receptor [1]) | EC50 (human GPR55) [µM] | IC50 (human GPR55) [µM] | Human GPR55 % activation (human GPR55) [%] | Human GPR55 % inhibition (human GPR55) [%] | EC50 (human GPR18) [µM] | IC50 (human GPR18) [µM] | Human GPR18 % activation (human GPR18) [%] | Human GPR18 % inhibition (human GPR18) [%] | efficacy at CB1 receptor (in words) (CB1 receptor [2]) | efficacy at CB2 receptor (in words) (CB2 receptor [1]; test concentration 1 µM or 10 µM) | fold decrease of affinity when naphthyl is linked in 2-position (CB1 receptor [3]; CB1, compared with 5F-NNEI (5)) | CB1 selectivity Ki CB2/KiCB1 (CB1 receptor [3]) | Ki (CB1 receptor [3]) [µM] | CB2 selectivity Ki CB1/KiCB2 (CB2 receptor [4]) | inhibition at 30 µM (CB2 receptor [4]; at 30 µM, read-out: Maximal inhibition of radioligand binding, human CB2) [%] | Ki (CB2 receptor [4]) [µM]
CCCCCc1cc(O)c2c(c1)OC(C)(C)[C@@H]1CCC(C)=C[C@@H]21 [Compound 1, Δ^9-tetrahydrocannabinol, reference compound] | 60–70% | – | – | – | – | – | – | – | – | – | – | – | – | – | – | – | –
O=C(Nc1ccc2ccccc2c1)c1cn(CCCCCF)c2ccccc12 [Compound 7, 5F-NNEI-2-naphthyl-isomer] | – | > 10 | > 10 | 19 | 20 | > 10 | > 10 | 9 | 5 | lower efficacy than Δ^9-THC | lower efficacy than Δ^9-THC | about 100 fold | 1.0 | 0.235 ± 0.015 | 1.0 | 80 | 0.226 ± 0.024
O=C(NC12CC3CC(CC(C3)C1)C2)c1nn(CCCCCF)c2ccccc12 [Compound 17, 5F-APINACA (5F-AKB48)] | – | – | – | – | – | – | – | – | – | activated CB1 receptor more efficaciously than CB2 | – | – | – | 0.00194 ± 0.00055 | 7.3 | – | 0.000266 ± 4.1e-05
O=C(Oc1cccc2ccccc12)c1cn(CCCCCF)c2ccccc12 [Compound 19, NM-2201] | – | > 10 | > 10 | 17 | 23 | > 10 | > 10 | −8 | 32 | higher efficacy than the full agonist CP55,940 | – | – | 2.2 | 0.000332 ± 0.000107 | – | – | 0.000732 ± 0.000174
O=C(Oc1cccc2ccccc12)c1cn(Cc2ccc(F)cc2)c2ccccc12 [Compound 20, FDU-PB-22] | – | > 10 | > 10 | 11 | 30 | > 10 | > 10 | 30 | −4 | – | – | – | 2.0 | 0.00119 ± 0.00039 | – | – | 0.00243 ± 0.00092
O=C(Oc1cccc2cccnc12)c1cn(CCCCCF)c2ccccc12 [Compound 25, 5F-PB-22] | – | > 10 | > 10 | 5 | -10 | > 10 | > 10 | −5 | −5 | – | – | – | 1.4 | 0.000468 ± 6.9e-05 | – | – | 0.000633 ± 5.8e-05
O=C(Oc1cccc2cccnc12)c1cn(Cc2ccc(F)cc2)c2ccccc12 [Compound 26, FUB-PB-22] | – | > 10 | > 10 | 5 | 24 | > 10 | > 10 | 15 | 8 | – | – | – | 1.2 | 0.000386 ± 0.000117 | – | – | 0.000478 ± 0.000124
O=C(Oc1cccc2cccnc12)c1cn(CC2CCCCC2)c2ccccc12 [Compound 27, BB-22] | – | > 10 | > 10 | 9 | 34 | > 10 | > 10 | 2 | 18 | higher efficacy than the full agonist CP55,940 | – | – | 1.6 | 0.000217 ± 5.6e-05 | – | – | 0.000338 ± 4.5e-05
CCCCCn1nc(C(=O)c2cccc3ccccc23)c2ccccc21 [Compound 28, THJ018] | – | > 10 | 8.2 ± 2.11 | 6 | – | > 10 | > 10 | 33 | −5 | – | – | – | – | 0.00584 ± 0.00132 | 1.3 | – | 0.00457 ± 0.00028
O=C(c1cccc2ccccc12)c1nn(CCCCCF)c2ccccc12 [Compound 29, THJ2201] | – | > 10 | > 10 | −1 | 47 | > 10 | > 10 | 18 | 21 | – | – | – | 1.0 | 0.00134 ± 0.00054 | 1.0 | – | 0.00132 ± 0.00039
CCc1ccc(C(=O)c2cn(CCCCCF)c3ccccc23)c2ccccc12 [Compound 31, EAM-2201] | – | > 10 | 1.86 ± 0.16 | −24 | – | > 10 | > 10 | 14 | 4 | higher efficacy than the full agonist CP55,940 | – | – | 1.0 | 0.00038 ± 0.000111 | 1.0 | – | 0.000371 ± 5.2e-05
O=C(c1cn(CCCCCF)c2ccccc12)C12CC3CC(CC(C3)C1)C2 [Compound 36, 5F-AB001] | – | > 10 | ~10 | 19 | 48 | > 10 | ~10 | −6 | – | – | – | – | – | 0.0123 ± 0.003 | 8.4 | – | 0.00147 ± 0.00103
CCCC(F)Cn1cc(C(=O)C2C(C)(C)C2(C)C)c2ccccc21 (stereo not drawn) [Compound 39, XLR-11-2-fluoropentyl-isomer] | – | > 10 | 5.69 ± 1.95 | −8 | – | > 10 | > 10 | 24 | 29 | – | – | – | – | 0.0595 ± 0.0169 | 32.5 | – | 0.00183 ± 0.00047
CC1(C)C(C(=O)c2nn(CCCCCF)c3ccccc23)C1(C)C [Compound 40, FAB-144] | – | > 10 | ~10 | 5 | 77 | > 10 | ~10 | 2 | 57 | – | – | – | – | 0.0175 ± 0.0011 | 38.9 | – | 0.00045 ± 0.000111
CC1(C)C(C(=O)c2cn(Cc3ccc(F)cc3)c3ccccc23)C1(C)C [Compound 42, FUB-144] | – | > 10 | ~10 | −3 | 62 | > 10 | ~10 | −12 | 74 | – | – | – | – | 0.014 ± 0.0027 | 16.5 | – | 0.000846 ± 0.000209
Cc1c(C(=O)C2C(C)(C)C2(C)C)c2ccccc2n1CCCCCF [Compound 47, M-144] | – | > 10 | ~10 | −5 | 86 | > 10 | ~10 | −7 | 67 | – | – | – | – | 0.0194 ± 0.0078 | 4.2 | – | 0.00459 ± 0.00148
